{"source": "patent US20080153839A1", "about": "“USE OF ANISIC ACID FOR PROMOTING DESQUAMATION” (L'OREAL, priority 2006, published 2008)", "tested_on": "stratum corneum of normal human skin fragments kept in survival", "assay": "Cohesion of the stratum corneum on skin kept in survival, histological slices stained with hemalun-eosin", "assay_type": "cell-based", "conditions": "for % increase in desquamation relative to the control skin / Scores (histological evaluation of the cohesion of the horny layer, semi-quantitative scores): topical; for Scores (histological evaluation of the cohesion of the horny layer, semi-quantitative scores): average of 6 donors, score 0-4, the higher the score the lower the cohesion", "protocol": "Fragments of normal human skin are obtained by plastic surgery from 6 different donors. They are placed in inserts, which are themselves positioned on culture wells containing culture medium specifically adapted for maintaining the skin fragments in survival (antibiotics, FCS). The anisic acid is applied topically according to the following protocol and in comparison with an untreated skin (control skin): • control skin • skin+[…] • skin+[…] The cohesion of the horny layer was evaluated using stained histological slices, according to the following semi-quantitative scores (evaluation on 10 to 15 fields at magnification 40): • score 0 absence of change of cohesion of the stratum corneum • score 1 slight reduction in cohesion of the stratum corneum • score 2 moderate reduction in cohesion of the stratum corneum • score 3 large reduction in cohesion of the stratum corneum • score 4 very large reduction in cohesion of the stratum corneum with exfoliation. An average is determined for each parameter from the results obtained on the 6 skin models. The statistical analysis is performed by means of the “reduced deviation” Student test or the paired samples test, with a risk of 5%.", "key": {"[1]": {"conditions": "0.1% anisic acid, listed as anisic acid"}, "[2]": {"conditions": "1% anisic acid, listed as anisic acid"}}}
{"smiles": "COc1ccc(C(=O)O)cc1", "note": "[Anisic acid, 4-methoxybenzoic acid]", "values": [{"measurement": "desquamating activity after topical application relative to the control skins", "setting": "0.1% and 1%, histological reduction in the cohesion of the stratum corneum, no dose effect", "value": "significant desquamating activity"}, {"measurement": "% increase in desquamation relative to the control skin", "setting": "0.1% anisic acid", "value": 95.9, "unit": "%"}, {"measurement": "Scores (histological evaluation of the cohesion of the horny layer, semi-quantitative scores)", "setting": "0.1% anisic acid", "value": "1.43 ± 0.7"}, {"measurement": "Scores (histological evaluation of the cohesion of the horny layer, semi-quantitative scores)", "setting": "[1]", "value": 1.43}, {"measurement": "% increase in desquamation relative to the control skin", "setting": "[1]", "value": 95.9, "unit": "%"}, {"measurement": "% increase in desquamation relative to the control skin", "setting": "1% anisic acid", "value": 115, "unit": "%"}, {"measurement": "Scores (histological evaluation of the cohesion of the horny layer, semi-quantitative scores)", "setting": "1% anisic acid", "value": "1.57 ± 0.4"}, {"measurement": "Scores (histological evaluation of the cohesion of the horny layer, semi-quantitative scores)", "setting": "[2]", "value": 1.57}, {"measurement": "% increase in desquamation relative to the control skin", "setting": "[2]", "value": 115, "unit": "%"}]}
